Measurements taken from patent US8026257B2 (Bristol-Myers Squibb Company, priority 2007, dated 2011).

Experiments:
hSERT = hSERT (Homo sapiens, UniProt P31645); assay: SERT radioligand binding assay ([125I]RTI-55, HEK-hSERT membranes); details: HEK-293 hSERT membranes, 260 pM [125I]RTI-55, 1 hour at room temperature; read-out: SERT IC50
Method: (§1) NK-1 Binding assay. Crude membrane suspensions were prepared for the NK1 and SERT radioligand binding assays from U373 cells or recombinant HEK-293 cells expressing hSERT, respectively. Cells were harvested from T-175 flasks as follows. The medium is removed from the flasks and the cells rinsed with HBSS without Ca and without Mg. The cells are then incubated for 5-10 minutes in 10 mM Tris-Cl, pH 7.5, 5 mM EDTA before the cells are lifted with a combination of pipetting and scraping, as needed. To prepare membranes, the cell suspension is collected into centrifuge bottles and homogenized for 30 seconds with a Polytron homogenizer. The suspension is centrifuged for 30 min@32,000×g, 4° C., then the supernatant is decanted and the pellet resuspended and homogenized in 50 mM Tris-Cl, pH 7.5, 1 mM EDTA for 10 seconds. The suspension is then centrifuged again for 30 min@32,000×g, 4° C. The supernatant is decanted and the pellet resuspended in 50 mM Tris-Cl, pH 7.5, 1 mM EDTA and briefly homogenized. A Bradford assay (Bio-rad) is performed and the membrane preparation diluted to 2 mg/ml with 50 mM Tris-Cl, pH 7.5, 1 mM EDTA. Aliquots are prepared, and then frozen and stored at −80° C.
SERT radioligand binding assay. Compounds are dissolved in 100% DMSO at a concentration 100× the desired highest assay concentration, serially diluted 1:3 in 100% DMSO, and 0.4 ul/well of each solution is dispensed to a Nunc polypropylene, round bottom, 384 well plate. 100% inhibition is defined with 0.4 ul/well of 1 mM fluoxetine (Sigma F-132) dissolved in DMSO. 20 ul/well of a 2× HEK-hSERT membrane preparation (15 ug/ml in 50 mM Tris-Cl, pH 7.5, 120 mM NaCl, 5mM KCl) and 20 ul/well of a 2× radioligand solution (520 pM [^125I]RTI-55 (Perkin-Elmer NEX-272) in 50 mM Tris-Cl, pH 7.5, 120 mM NaCl, 5mM KCl) are added to each well and the reaction incubated for 1 hour at room temperature. The contents of the assay plate are then transferred to a Millipore MultiscreenHTs GF/B filter plate which has been pretreated with 0.5% PEI for at least one hour. The plate is vacuum filtered and washed with 7 washes of 100 ul/well of 50 mM Tris-Cl, pH 7.5, 120 mM NaCl, 5 mM KCl chilled to 4° C. The filtration and washing is completed in less than 90 s. The plates are air-dried overnight, 12 ul/well of MicroScint scintillation fluid added, and the plates counted in a Trilux.
(§2) Data analysis. The raw data are normalized to percent inhibition using control wells defining 0% (DMSO only) and 100% (selective inhibitor) inhibition which are run on each plate. Each plate is run in triplicate, and the concentration response curve thus generated is fit using the four-parameter dose response equation, Y=Bottom+(Top-Bottom)/(1+10^((LogIC50−X)*HillSlope)) in order to determine the IC50 value for each compound. The radioligand concentration chosen for each assay corresponds to the Kd concentration determined through saturation binding analysis for each assay.

NK-1 = molecular target: T1, NK-1 (Homo sapiens, UniProt P25103); assay: NK1 radioligand binding assay ([125I]Substance P, U373 membranes); details: U373 cell membranes, 200 pM [125I]Substance P, 1 hour at room temperature
T1 construct: 30 ul/well of a 2×U373 membrane preparation
T1 sequence (P25103 whole entry): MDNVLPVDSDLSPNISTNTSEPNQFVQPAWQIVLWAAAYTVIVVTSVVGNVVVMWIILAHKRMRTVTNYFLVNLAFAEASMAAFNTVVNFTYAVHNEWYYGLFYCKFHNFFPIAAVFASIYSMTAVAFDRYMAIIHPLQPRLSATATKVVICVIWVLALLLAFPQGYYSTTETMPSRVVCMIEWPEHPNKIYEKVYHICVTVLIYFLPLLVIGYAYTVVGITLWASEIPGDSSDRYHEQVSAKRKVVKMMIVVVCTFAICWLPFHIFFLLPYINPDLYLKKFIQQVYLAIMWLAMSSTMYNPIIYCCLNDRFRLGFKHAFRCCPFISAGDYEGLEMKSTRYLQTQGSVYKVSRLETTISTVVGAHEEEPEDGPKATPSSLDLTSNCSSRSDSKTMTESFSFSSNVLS
Method: as §1
NK1 radioligand binding assay. Compounds are dissolved in 100% DMSO at a concentration 100× the desired highest assay concentration, serially diluted 1:3 in 100% DMSO, and 0.6 ul/well of each solution is dispensed to a Nunc polypropylene, round bottom, 384 well plate. 100% inhibition is defined with 0.6 ul/well of 1 mM L-733,060 (Sigma L-137) dissolved in DMSO. 30 ul/well of a 2×U373 membrane preparation (267 ug/ml in 100 mM Tris-Cl, pH 7.5, 6 mM MgCl2, 0.2% (v/v) Sigma mammalian protease inhibitor cocktail (Sigma P-8340), and 4 ug/ml chymostatin, Sigma C-7268) and 30 ul/well of a 2× radioligand solution (400 pM [^125I]Substance P (Perkin ElmerNEX-190) in 1% (w/v) BSA (Sigma A-2153), 0.1 mg/ml bacitracin, Sigma B-0125) are added to the well and the reaction incubated for 1 hour at room temperature. The contents of the assay plate are then transferred to a Millipore MultiscreenHTS GF/B filter plate which has been pretreated with 0.5% PEI for at least one hour. The plate is vacuum filtered and washed with 7 washes of 100 ul/well of 20 mM Tris-Cl, pH 7.5, 0.5% (w/v) BSA chilled to 4° C. The filtration and washing is completed in less than 90 s. The plates are air-dried overnight, 12 ul/well of MicroScint scintillation fluid added, and the plates counted in a Trilux.
as §2

Sequence of hSERT (P31645 whole entry): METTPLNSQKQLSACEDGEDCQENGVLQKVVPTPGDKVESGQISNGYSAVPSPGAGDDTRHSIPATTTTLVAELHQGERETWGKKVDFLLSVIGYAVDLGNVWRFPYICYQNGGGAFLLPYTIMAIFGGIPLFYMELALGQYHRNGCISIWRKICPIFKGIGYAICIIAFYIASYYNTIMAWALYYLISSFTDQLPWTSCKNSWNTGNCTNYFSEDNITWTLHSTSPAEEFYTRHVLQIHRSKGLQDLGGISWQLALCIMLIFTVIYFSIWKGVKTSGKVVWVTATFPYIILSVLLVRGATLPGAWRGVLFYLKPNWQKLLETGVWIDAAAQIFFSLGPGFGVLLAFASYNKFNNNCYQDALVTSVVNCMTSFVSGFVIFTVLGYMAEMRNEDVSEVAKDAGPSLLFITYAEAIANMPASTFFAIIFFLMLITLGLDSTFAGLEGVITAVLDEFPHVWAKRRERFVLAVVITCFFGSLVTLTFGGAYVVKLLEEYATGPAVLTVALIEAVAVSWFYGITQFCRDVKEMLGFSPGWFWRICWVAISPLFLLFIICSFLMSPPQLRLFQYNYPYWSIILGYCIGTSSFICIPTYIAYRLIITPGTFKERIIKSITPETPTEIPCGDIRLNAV

| Structure (SMILES) | IC50 (hSERT) [nM] | IC50 (NK-1) [nM] |
| --- | --- | --- |
| CC(OCC1(c2ccc(F)cc2)CCN(C)CC1)c1cc(N2CCOCC2)cc2cn[nH]c12 (racemic) [Example 50, (±)-4-7-(1-((4-(4-Fluorophenyl)-1-methylpiperidin-4-yl)methoxy)ethyl)-1H-indazole-5-yl)morpholino] | 0.01 to 100 | 100 to 300 |
| COc1cc(C(C)OCC2(c3ccc(F)cc3)CCN(C)CC2)c2[nH]ncc2c1 (racemic) [Example 52, (±)-7-(1-((4-(4-Fluorophenyl)-1-methylpiperidin-4-yl)methoxy)ethyl)-5-methoxy-1H-indazole] | 0.01 to 100 | 0.01 to 100 |
| CC(OCC1(c2ccc(F)cc2)CCN(C)CC1)c1cc(F)cc2cn[nH]c12 (racemic) [Example 53, (±)-5-Fluoro-7-(1-((4-(4-fluorophenyl)-1-methylpiperidin-4-yl)methoxy)ethyl)-1H-indazole] | 0.01 to 100 | 0.01 to 100 |
| Cc1n[nH]c2c(C(C)OCC3(c4ccc(F)cc4)CCN(C)CC3)cc(Cl)cc12 (racemic) [Example 55, (±)-5-Chloro-7-(1-((4-(4-fluorophenyl)-1-methylpiperidin-4-yl)methoxy)ethyl)-3-methyl-1H-indazole] | 0.01 to 100 | 0.01 to 100 |
| CC(OCC1(c2ccc(F)cc2)CCN(C)CC1)c1cc(Cl)cc2c(C3CC3)n[nH]c12 (racemic) [Example 56, (±)-5-Chloro-3-cyclopropyl-7-(1-((4-(4-fluorophenyl)-1-methylpiperidin-4-yl)methoxy)ethyl)-1H-indazole] | 0.01 to 100 | 0.01 to 100 |
| CC(OCC1(c2ccc(F)cc2)CCN(C)CC1)c1cc(Cl)cc2c(Br)n[nH]c12 (racemic) [Example 57, (±)-3-Bromo-5-chloro-7-(1-((4-(4-fluorophenyl)-1-methylpiperidin-4-yl)methoxy)ethyl)-1H-indazole] | 0.01 to 100 | 0.01 to 100 |
| CC(OCC1(c2ccc(F)cc2)CCN(C)CC1)c1cc(Cl)cc2cn(C3CC3)nc12 (racemic) [Example 58, (±)-5-Chloro-2-cyclopropyl-7-(1-((4-(4-fluorophenyl)-1-methylpiperidin-4-yl)methoxy)ethyl)-2H-indazole] | 0.01 to 100 | 0.01 to 100 |
| CC(OCC1(c2ccc(F)cc2)CCN(C)CC1)c1cc(Cl)cc2c(Cl)n[nH]c12 (racemic) [Example 59, (±)-3,5-Dichloro-7-(1-((4-(4-fluorophenyl)-1-methylpiperidin-4-yl)methoxy)ethyl)-1H-indazole] | 0.01 to 100 | 0.01 to 100 |
| Cc1cc(C(C)OCC2(c3ccc(F)cc3)CCN(C)CC2)c2c(cnn2CC(F)F)c1 (racemic) [Example 60, (±)-1-(2,2-Difluoroethyl)-7-(1-((4-(4-fluorophenyl)-1-methylpiperidin-4-yl)methoxy)ethyl)-5-methyl-1H-indazole] | 0.01 to 100 | 0.01 to 100 |
| Cc1cc(C(C)OCC2(c3ccc(F)cc3)CCN(C)CC2)c2nn(CC(F)F)cc2c1 (racemic) [Example 61, (±)-2-(2,2-Difluoroethyl)-7-(1-((4-(4-fluorophenyl)-1-methylpiperidin-4-yl)methoxy)ethyl)-5-methyl-2H-indazole] | 0.01 to 100 | 0.01 to 100 |
| Cc1cc(C(C)OCC2(c3ccc(F)cc3)CCN(C)CC2)c2c(cnn2CC2CC2)c1 (racemic) [Example 62, (±)-1-(Cyclopropylmethyl)-7-(1-((4-(4-fluorophenyl)-1-methylpiperidin-4-yl)methoxy)ethyl)-5-methyl-1H-indazole] | 0.01 to 100 | 0.01 to 100 |
| Cc1cc(C(C)OCC2(c3ccc(F)cc3)CCN(C)CC2)c2nn(CC3CC3)cc2c1 (racemic) [Example 63, (±)-2-(Cyclopropylmethyl)-7-(1-((4-(4-fluorophenyl)-1-methylpiperidin-4-yl)methoxy)ethyl)-5-methyl-2H-indazole] | 0.01 to 100 | 0.01 to 100 |
| Cc1cc(C(C)OCC2(c3ccc(F)cc3)CCN(C)CC2)c2c(cnn2C2CC2)c1 (racemic) [Example 64, (±)-1-Cyclopropyl-7-(1-((4-(4-fluorophenyl)-1-methylpiperidin-4-yl)methoxy)ethyl)-5-methyl-1H-indazole] | 0.01 to 100 | 0.01 to 100 |
| CC(OCC1(c2ccccc2)CCN(C)CC1)c1cc(C(F)(F)F)cc2cc[nH]c12 (racemic) [Example 70, (±)-7-(1-((1-Methyl-4-phenylpiperidin-4-yl)methoxy)ethyl)-5-(trifluoromethyl)-1H-indole] | 100 to 300 | 0.01 to 100 |
| CC(OCC1(c2ccccc2)CCN(C)CC1)c1cc(C(F)(F)F)cc2ccn(C)c12 (racemic) [Example 71, (±)-1-Methyl-7-(1-((1-methyl-4-phenylpiperidin-4-yl)methoxy)ethyl)-5-(trifluoromethyl)-1H-indole] | 0.01 to 100 | 0.01 to 100 |
| CC(OCC1(c2ccc(F)cc2)CCN(C)CC1)c1cc(C(F)(F)F)cc2cc[nH]c12 (racemic) [Example 72, (±)-7-(1-((4-(4-Fluorophenyl)-1-methylpiperidin-4-yl)methoxy)ethyl)-5-(trifluoromethyl)-1H-indole] | 0.01 to 100 | 0.01 to 100 |
| CC(OCC1(c2ccc(F)cc2)CCN(C)CC1)c1cc(C(F)(F)F)cc2ccn(C)c12 (racemic) [Example 73, (±)-7-(1-((4-(4-Fluorophenyl)-1-methylpiperidin-4-yl)methoxy)ethyl)-1-methyl-5-(trifluoromethyl)-1H-indole] | 0.01 to 100 | 0.01 to 100 |
| CC(OCC1(c2ccc(F)cc2)CCN(C)CC1)c1cc(C(F)(F)F)cc2c1NC(=O)C2 (racemic) [Example 123, (±)-7-(1-((4-(4-fluorophenyl)-1-methylpiperidin-4-yl)methoxy)ethyl)-5-(trifluoromethyl)indolin-2-one] | 0.01 to 100 | 0.01 to 100 |
| CC(OCC1(c2ccc(F)cc2)CCN(C)CC1)c1cc(Cl)cc2c(C#N)c[nH]c12 (racemic) [Example 124, (±)-5-chloro-7-(1-((4-(4-fluorophenyl)-1-methylpiperidin-4-yl)methoxy)ethyl)-1H-indole-3-carbonitrile] | 0.01 to 100 | 0.01 to 100 |
| Cc1c[nH]c2c(C(C)OCC3(c4ccc(F)cc4)CCN(C)CC3)cc(C(F)(F)F)cc12 (racemic) [Example 126, (±)-7-(1-((4-(4-fluorophenyl)-1-methylpiperidin-4-yl)methoxy)ethyl)-3-methyl-5-(trifluoromethyl)-1H-indole] | 0.01 to 100 | 0.01 to 100 |
| CC(OCC1(c2ccc(F)cc2)CCN(C)CC1)c1cc(C(F)(F)F)cc2c1ccn2C (racemic) [Example 127, (±)-4-(1-((4-(4-fluorophenyl)-1-methylpiperidin-4-yl)methoxy)ethyl)-1-methyl-6-(trifluoromethyl)-1H-indole] | 0.01 to 100 | 0.01 to 100 |
